Measurements: US5229378A, “Glycyrrhetic acid derivatives” (Senju Pharmaceutical Co., Ltd., priority 1991, dated 1993)

Experiments:
[1] = tested on: lipid peroxide (LPO) in rat brain homogenate; assay: Antioxidant activity assay by the method of Stocks (lipid peroxide in brain homogenate, TBA method); format: biochemical, male Wistar rats; conditions: LPO as MDA per mg protein, 37° C., 60 minutes
Experimental: The antioxidant activity of the compound of the invention was assayed by the method of Stocks.
This experiment was performed using male Wistar rats (about 10 weeks old). After perfusion for removal of blood from the brain, the brain tissue was removed and homogenized in 4 volumes of ice-cooled 0.1M phosphate-NaCl buffer (pH 7.4). The homogenate was centrifuged at 1000×g for 10 minutes and the supernatant was taken. The brain homogenate was diluted with 10 volumes of phosphate-NaCl buffer and a 500 μl portion of the dilution was incubated at 37° C. for 60 minutes. The reaction was quenched by pouring the incubate in ice-water and 490 μl of 0.1M phosphate-NaCl buffer was added. The amount of lipid peroxide (LPO) was determined by the TBA method. The amount of LPO was expressed in the amount of malondialdehyde (MDA) per mg protein. The amount of protein was determined by the method of Lowry.

[2] = tested on: formalin-induced mouse paw edema; assay: Antiinflammatory activity assay, mouse paw edema test (formalin); format: in vivo, male ddy mice; conditions: 200 mg orally, 1 hour before 0.05 ml of 0.75% formalin into right hind paw
Experimental: The antiinflammatory activity of the compound of the invention was assayed by the mouse paw edema test. The experiment was performed in groups of 6 male ddy mice weighting 20 g-25 g. The volume of the right hind paw of each mouse was measured with a plethysmograph and 200 mg of the compound of the invention was orally administered. After 1 hour, 0.05 ml of 0.75% formalin as a phlogistic agent was injected subcutaneously into the dorsum of the right hind paw and the foot volume was measured at timed intervals. The edema rate and the percent inhibition was calculated from the values found. [formula]

Row | Structure (SMILES) | % Inhibition ([1]; Dosage 1 × 10^-3 M) [%] | % Inhibition ([1]; Dosage 1 × 10^-4 M) [%] | % Inhibition ([2]; Hour 1) [%] | % Inhibition ([2]; Hour 4) [%]
1 | COC(=O)[C@@]1(C)CC[C@]2(C)CC[C@]3(C)C(=CC(=O)[C@@H]4[C@@]5(C)CC[C@H](OP(=O)(O)OC6=C(O)[C@@H]([C@@H](O)CO)OC6=O)C(C)(C)[C@@H]5CC[C@]43C)[C@@H]2C1 [(1), Methyl 3-(L-ascorbyl-2-phosphoryl)-glycyrrhetinate] | 95.3 | 87.6 | 36.36 | 37.84
2 | CCOC(=O)[C@@]1(C)CC[C@]2(C)CC[C@]3(C)C(=CC(=O)[C@@H]4[C@@]5(C)CC[C@H](OP(=O)(O)OC6=C(O)[C@@H]([C@@H](O)CO)OC6=O)C(C)(C)[C@@H]5CC[C@]43C)[C@@H]2C1 [(2), Ethyl 3-(L-ascorbyl-2-phosphoryl)-glycyrrhetinate] | 95.4 | 44.7 | 18.84 | 28.72
3 | CCCCCCOC(=O)[C@@]1(C)CC[C@]2(C)CC[C@]3(C)C(=CC(=O)[C@@H]4[C@@]5(C)CC[C@H](OP(=O)(O)OC6=C(O)[C@@H]([C@@H](O)CO)OC6=O)C(C)(C)[C@@H]5CC[C@]43C)[C@@H]2C1 [(3), Hexyl 3-(L-ascorbyl-2-phosphoryl)-glycyrrhetinate potassium] | 94.8 | 82.5 | 22.50 | 22.07
4 | CCCCCCCCCCCCOC(=O)[C@@]1(C)CC[C@]2(C)CC[C@]3(C)C(=CC(=O)[C@@H]4[C@@]5(C)CC[C@H](OP(=O)(O)OC6=C(O)[C@@H]([C@@H](O)CO)OC6=O)C(C)(C)[C@@H]5CC[C@]43C)[C@@H]2C1 [(4), Lauryl 3-(L-ascorbyl-2-phosphoryl)-glycyrrhetinate potassium] |  |  | 49.03 | 50.57
5 | CCCCCCCCCCCCCCCCCCOC(=O)[C@@]1(C)CC[C@]2(C)CC[C@]3(C)C(=CC(=O)[C@@H]4[C@@]5(C)CC[C@H](OP(=O)(O)OC6=C(O)[C@@H]([C@@H](O)CO)OC6=O)C(C)(C)[C@@H]5CC[C@]43C)[C@@H]2C1 [(5), Stearyl 3-(L-ascorbyl-2-phosphoryl)-glycyrrhetinate potassium] |  |  | 31.02 | 34.42
6 | CC1(C)[C@@H](O)CC[C@]2(C)[C@H]3C(=O)C=C4[C@@H]5C[C@@](C)(C(=O)O)CC[C@]5(C)CC[C@@]4(C)[C@]3(C)CC[C@@H]12 [(6), Glycyrrhetic acid] |  |  | 16.28 | 25.37
